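Assay format: 96-well plates, 48-hour exposure. TGI denotes the concentration required for complete inhibition of growth.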
Columns and labels:
Assay in all cases: inhibition of tumour cell growth, NCI panel, 48 h
NCI/ADR-RES ovarian = test system: NCI/ADR-RES ovarian
SF-539 CNS = test system: SF-539 CNS
OVCAR-3 ovarian = test system: OVCAR-3 ovarian
UO-31 renal = test system: UO-31 renal
SK-MEL-5 melanoma = test system: SK-MEL-5 melanoma
HT29 colon = test system: HT29 colon
HCT-116 colon = test system: HCT-116 colon
ACHN renal = test system: ACHN renal
MCF7 breast = test system: MCF7 breast
SK-OV-3 ovarian = test system: SK-OV-3 ovarian
NCI-H23 lung = test system: NCI-H23 lung

Row | Structure (SMILES) | TGI (NCI/ADR-RES ovarian) | TGI (SF-539 CNS) | TGI (OVCAR-3 ovarian) | TGI (UO-31 renal) | TGI (SK-MEL-5 melanoma) | TGI (HT29 colon) | TGI (HCT-116 colon) | TGI (ACHN renal) | TGI (MCF7 breast) | TGI (SK-OV-3 ovarian) | TGI (NCI-H23 lung)
1 | COC(=O)c1cc(C)ccc1CC(Cc1ccccc1C)C(=O)OC (stereo unspecified) | > 100 µM | > 100 µM | > 100 µM | > 100 µM | 28.4 µM | 94.2 µM | > 100 µM | > 100 µM | 94.8 µM | > 100 µM | > 100 µM
2 | C#CCSc1cnc2ccccc2c1Sc1c[nH]c2ccccc2c1=O | > 100 µM | > 100 µM | > 100 µM | 5.99 µM | 44.8 µM | > 100 µM | 32.5 µM | 36.7 µM | > 100 µM | > 100 µM | > 100 µM
3 | Cc1cc2c(cc1Cl)Sc1nnc(C)n1S2(=O)=O | 69.8 µM | 36.4 µM | 29.6 µM | 24.1 µM | 27 µM | 45.8 µM | 45.4 µM | 27.7 µM | 18.1 µM | 75.2 µM | 30.1 µM
4 | CC1(C)SC2C(NC(=O)Cc3ccccc3)C(=O)N2C1C(=O)O (stereo unspecified) | > 100 µM | > 100 µM | > 100 µM | > 100 µM | > 100 µM | > 100 µM | > 100 µM | > 100 µM | > 100 µM | > 100 µM | > 100 µM
5 | COc1ccc2c(-c3ccc(O)cc3)c(Oc3ccccc3)c(=O)oc2c1 | > 100 µM | > 100 µM | > 100 µM | 27.5 µM | > 52 µM | 98.2 µM | > 93.5 µM | > 85.9 µM | > 100 µM | > 100 µM | > 100 µM
6 | CSCCCNC(=O)c1csc([C@@H](CSC)NC(=O)CCNC(=O)[C@@H](NC(=O)OCC(Br)(Br)Br)C(C)O)n1 (stereo partly specified) | > 100 µM | > 100 µM | > 100 µM | > 100 µM | > 100 µM | > 100 µM | > 100 µM | > 100 µM | > 100 µM | > 100 µM | > 100 µM
7 | O=C(/C(Cl)=C/c1ccccc1)c1ccccc1 | 19.4 µM | 13.1 µM | 8.36 µM | 5.49 µM | 12.1 µM | 3.52 µM | 2.78 µM | 4.81 µM | > 28.4 µM | 39.8 µM | 26 µM
8 | COc1ccc(C2c3cc4c(cc3OC(N3CCOCC3)C2C)OCO4)c(OC)c1 (stereo unspecified) | 9.68 µM | 9.64 µM | 13.9 µM | 58.7 µM | 11.5 µM | 13.2 µM | 15.8 µM | 93.8 µM | 33.8 µM | 52.6 µM | > 67.9 µM
9 | COC(=O)c1ccc(NCC2=CC(=O)c3ccccc3C2=O)cc1 | 90.6 µM | 63.6 µM | 26.7 µM | 35.8 µM | 27.6 µM | > 76.4 µM | 35.3 µM | 42.4 µM | > 100 µM | 35.3 µM | 38.2 µM
10 | CCOC(=O)C1(Cc2ccccc2)CCN(C(=O)c2ccccc2)C2C1C2(Cl)Cl (stereo unspecified) | 69 µM | 38.5 µM | 47.1 µM | 58.9 µM | 29.5 µM | 34.8 µM | 30 µM | 54.8 µM | 71 µM | > 100 µM | 77 µM
11 | CC1(C)OC2CN(C(=O)OCc3ccccc3)C(CO)C2O1 (stereo unspecified) | > 100 µM | > 100 µM | > 100 µM | > 100 µM | > 100 µM | > 100 µM | > 100 µM | > 100 µM | > 100 µM | > 100 µM | > 100 µM
12 | COc1cc(/C=C2\CCc3cc(OC)c(OC)cc3C2=O)cc(OC)c1 | 10.9 µM | > 31 µM | > 42 µM | > 100 µM | 18.1 µM | > 100 µM | > 42.3 µM | > 100 µM | > 84.3 µM | > 100 µM | > 86.7 µM
13 | CCOC(=O)/C=C/[C@H](O[Si](c1ccccc1)(c1ccccc1)c1ccccc1)C(C)(C)C | > 31.6 µM | > 31.6 µM | > 31.6 µM | > 31.6 µM | > 31.6 µM | > 31.6 µM | > 31.6 µM | > 31.6 µM | > 31.6 µM | > 31.6 µM | > 31.6 µM
14 | O=[N+]([O-])/C(C(Cl)=C(Cl)Cl)=C(/Sc1ccccc1)N1CCOCC1 | 38.4 µM | 25.5 µM | 8.87 µM | 16.6 µM | 11.4 µM | 26.2 µM | 3.27 µM | 15 µM | 8.53 µM | 79.8 µM | 29.8 µM
15 | CNC=O | > 10000 µM | > 10000 µM | > 10000 µM | > 10000 µM | > 10000 µM | > 10000 µM | > 10000 µM | > 10000 µM | > 10000 µM | < 3980 µM | > 10000 µM
16 | C/C=C/OC1C(C2COC(C)(C)O2)OC2OC(C)(C)OC21 (stereo unspecified) | > 100 µM | > 100 µM | > 100 µM | > 100 µM | > 100 µM | > 100 µM | > 100 µM | > 100 µM | > 100 µM | > 100 µM | > 100 µM
